Like-named read-outs stand apart in the source and are kept apart here.
Tests used:
[1] = Determination of log P values by HPLC on a reverse phase column (C18), EEC-Directive 79/831 Annex V.A8 (Methods A, B, C); assay type: physicochemical; conditions: for chromatographic logP: reverse phase C18 HPLC column
Description: (§1) Note on the determination of the log P values and mass detection: The stated log P values were determined in accordance with EEC-Directive 79/831 Annex V.A8 by HPLC (High Performance Liquid Chromatography) on a reverse phase column (C18). Agilent 1100 LC system; 50*4.6 Zorbax Eclipse Plus C18 1.8 micron; eluent A: acetonitrile (0.1% formic acid); eluent B: water (0.09% formic acid); linear gradient from 10% acetonitrile to 95% acetonitrile in 4.25 mins, then 95% acetonitrile for a further 1.25 mins; oven temperature 55° C.; flow rate: 2.0 mL/min. The mass detection was effected with an Agilend MSD system.
as §1, with “HP1100;” for “Agilent 1100 LC system;”, “(0.08%” for “(0.09%”, “5%” for “10%”, “1.70 min,” for “4.25 mins,”, “1.00 min;” for “1.25 mins;”, “the Micronass ZQ2000 mass detector from Waters.” for “an Agilend MSD system.”
Note on the determination of the log P values and mass detection: The stated log P values were determined in accordance with EEC-Directive 79/831 Annex V.A8 by UPLC (Ultra Performance Liquid Chromatography) on a reverse phase column (C18). HP1100; 50*2.1 Zorbax Eclipse Plus C18 1.8 micron; eluent A: acetonitrile (0.09% formic acid); eluent B: water (0.1% formic acid); linear gradient from 10% A to 95% A in 3.25 min; oven temperature 40° C.; flow rate: 0.8 mL/min. The mass detection was effected with the LCT Premier or SQD mass detector from Waters.

Sphaerotheca fuliginea = test: Example A: Sphaerotheca test (cucumber) / preventive; assay type: in vivo
Uromyces appendiculatus = test: Example B: Uromyces test (beans) / preventive; assay type: in vivo; conditions: in vivo
Leptosphaeria nodorum = test: Example C: Leptosphaeria test (wheat) / preventive; assay type: in vivo; conditions: in vivo
Pyrenophora teres = test: Example D: Pyrenophora test (barley) / preventive; assay type: in vivo
Puccinia recondita = test: Example E: Puccinia test (wheat) / preventive; assay type: in vivo; conditions: in vivo
Pyricularia oryzae = assay type: in vivo; conditions: in vivo
[2] = system: DON/Acetyl-DON production by Fusarium graminearum; test: microbe, parasite or virus in culture; assay type: cell-based; conditions: at 50 μM
Fusarium graminearum = test: microbe, parasite or virus in culture; assay type: cell-based; conditions: for Growth inhibition of Fusarium graminearum in %: at 50 μM
[3] = Method B (HPLC, reverse phase C18)
[4] = Method C (HPLC, reverse phase C18), read-out: LogP
[5] = pH 2.7, values in the synthesis examples, HPLC, reverse phase C18, read-out: log P (pH 2.7)
[6] = Method C (HPLC, reverse phase C18)

Row | SMILES | LogP [1, 3] | efficacy (Sphaerotheca fuliginea; in vivo) | efficacy (Uromyces appendiculatus) | efficacy (Leptosphaeria nodorum) | efficacy (Pyrenophora teres; in vivo) | efficacy (Puccinia recondita) | efficacy (Pyricularia oryzae) | also measured
1 | O=C(Nc1cc(-c2c(-c3ccccc3)nn3c2OCCC3)ccn1)C1CC1 [Example 7] | 1.25 | 95% | 94% | 90% | 95% | 100% | 94% | –
2 | CSCC(=O)Nc1cc(-c2c(-c3ccccc3)nn3c2OCCC3)ccn1 [Example 16] | 1.54 | 93% | 92% | – | 95% | 95% | 94% | –
3 | CC(C(=O)Nc1cc(-c2c(-c3ccccc3)nn3c2OCCC3)ccn1)c1ccc(F)cc1 (centres unmarked) [Example 18] | 2.27 | 93% | 94% | 90% | 95% | 95% | 94% | –
4 | CC(C)=CCC(=O)Nc1cc(-c2c(-c3ccccc3)nn3c2OCCC3)ccn1 [Example 19] | 1.91 | 90% | 92% | – | 95% | 95% | 94% | –
5 | CC(C)(C)CC(=O)Nc1cc(-c2c(-c3ccccc3)nn3c2OCCC3)ccn1 [Example 20] | 1.88 | 100% | 97% | 95% | 95% | 100% | 94% | –
6 | O=C(Nc1cc(-c2c(-c3ccccc3)nn3c2OCCC3)ccn1)C1(Cl)CC1 [Example 21] | 2.62 | 93% | – | 70% | 100% | 89% | 89% | –
7 | CCOC(=O)Nc1cc(-c2c(-c3ccc(F)cc3)nn3c2OCCC3)ccn1 [Example 23] | 1.66 | – | 94% | – | 95% | 95% | 94% | –
8 | C[C@H](O)C(=O)Nc1cc(-c2c(-c3ccc(F)cc3)nn3c2OCCC3)ccn1 [Example 26] | 1.31 | – | 72% | 70% | 100% | 100% | 94% | –
9 | O=C(CCc1ccccc1)Nc1cc(-c2c(-c3ccc(F)cc3)nn3c2OCCC3)ccn1 [Example 29] | 2.2 | – | 94% | – | 70% | 95% | 94% | –
10 | CSCC(=O)Nc1cc(-c2c(-c3ccc(F)cc3)nn3c2OCCC3)ccn1 [Example 30] | 1.72 | 98% | – | 70% | 95% | 100% | 94% | –
11 | CC(C(=O)Nc1cc(-c2c(-c3ccc(F)cc3)nn3c2OCCC3)ccn1)c1ccc(F)cc1 (centres unmarked) [Example 32] | 2.48 | – | 92% | – | 90% | 100% | 94% | –
12 | CC(C)=CCC(=O)Nc1cc(-c2c(-c3ccc(F)cc3)nn3c2OCCC3)ccn1 [Example 33] | 2.07 | – | 89% | – | 90% | 100% | 94% | –
13 | CCOC(=O)Nc1cc(-c2c(-c3ccc(F)cc3F)nn3c2OCCC3)ccn1 [Example 38] | 1.72 | – | 89% | – | 95% | 90% | 94% | –
14 | CCC(C)C(=O)Nc1cc(-c2c(-c3ccc(F)cc3F)nn3c2OCCC3)ccn1 (centres unmarked) [Example 39] | 1.85 | 98% | 94% | – | 95% | 100% | 94% | Inhibition of DON/AcDON in % [2]: 99%; Growth inhibition of Fusarium graminearum in % (Fusarium graminearum): 89%
15 | CC(C)CC(=O)Nc1cc(-c2c(-c3ccc(F)cc3F)nn3c2OCCC3)ccn1 [Example 40] | 1.88 | 98% | 94% | – | 95% | 100% | 94% | Inhibition of DON/AcDON in % [2]: 99%; Growth inhibition of Fusarium graminearum in % (Fusarium graminearum): 85%
16 | C[C@H](O)C(=O)Nc1cc(-c2c(-c3ccc(F)cc3F)nn3c2OCCC3)ccn1 [Example 41] | 1.34 | – | 94% | – | 90% | 95% | 94% | –
17 | O=C(CC1CC1)Nc1cc(-c2c(-c3ccc(F)cc3F)nn3c2OCCC3)ccn1 [Example 42] | 1.72 | – | 94% | 70% | 100% | 95% | 94% | –
18 | CSCC(=O)Nc1cc(-c2c(-c3ccc(F)cc3F)nn3c2OCCC3)ccn1 [Example 45] | 1.75 | 95% | 92% | – | 90% | 90% | 94% | Inhibition of DON/AcDON in % [2]: 100%; Growth inhibition of Fusarium graminearum in % (Fusarium graminearum): 78%
19 | CC(C(=O)Nc1cc(-c2c(-c3ccc(F)cc3F)nn3c2OCCC3)ccn1)c1ccc(F)cc1 (centres unmarked) [Example 47] | 2.48 | – | 92% | – | 80% | 95% | 89% | –
20 | CC(C)=CCC(=O)Nc1cc(-c2c(-c3ccc(F)cc3F)nn3c2OCCC3)ccn1 [Example 48] | 2.1 | – | 86% | – | 70% | 95% | 78% | –
21 | CC(C)(C)CC(=O)Nc1cc(-c2c(-c3ccc(F)cc3F)nn3c2OCCC3)ccn1 [Example 49] | 2.1 | 93% | 94% | 90% | 95% | 95% | 94% | –
22 | CC(=O)Nc1cc(-c2c(-c3ccccc3)nn3cccnc23)ccn1 [Example 51, N-[4-(2-phenylpyrazolo[1,5-a]pyrimidin-3-yl)pyridin-2-yl]acetamide] | – | – | – | – | – | – | – | chromatographic logP [1, 4]: 1.41; chromatographic logP [1, 5]: 1.41; inhibition at 50 µM ([2]; Fusarium graminearum, read-out: Inhibition of DON/AcDON in %): 100%; inhibition at 50 µM (Fusarium graminearum; Fusarium graminearum, read-out: Growth inhibition of Fusarium graminearum in %): 90%
23 | CC(=O)N(C(C)=O)c1cc(-c2c(-c3ccccc3)nn3cccnc23)ccn1 [Example 56, N-Acetyl-N-[4-(2-phenylpyrazolo[1,5-a]pyrimidin-3-yl)pyridin-2-yl]acetamide] | – | – | – | – | – | – | – | chromatographic logP [1, 4]: 2.13; chromatographic logP [1, 5]: 2.13; efficacy (Sphaerotheca fuliginea; 500 ppm of active ingredient, cucumber, preventive spray, evaluated 7 days after inoculation): 80%; efficacy (Pyrenophora teres; 500 ppm of active ingredient, barley, preventive spray, evaluated 7-9 days after inoculation): 95%
24 | O=C(Nc1cc(-c2c(-c3ccc(F)cc3)nn3c2OCCC3)ccn1)C(=O)N1CCCCC1 [Example 70] | 2.23 | – | – | – | – | – | – | Inhibition of DON/AcDON in % [2]: 90%; Growth inhibition of Fusarium graminearum in % (Fusarium graminearum): 76%
25 | CCC(=O)Nc1cc(-c2c(-c3ccc(F)cc3)nn3c2NCCC3)ccn1 [Example 80] | – | 93% | 78% | – | 100% | – | 90% | LogP [1, 6]: 1.35; Inhibition of DON/AcDON in % [2]: 100%
26 | CC(=O)N(C(C)=O)c1cc(-c2c(-c3ccc(F)cc3)nn3cccnc23)ccn1 [Example 83] | – | 90% | – | – | 80% | – | – | LogP [1, 6]: 2.22
27 | O=C(Nc1cc(-c2c(-c3ccc(F)cc3)nn3cccnc23)ccn1)C1CC1 [Example 88] | – | 93% | – | – | 95% | – | 90% | LogP [1, 6]: 1.75; Inhibition of DON/AcDON in % [2]: 70%; Growth inhibition of Fusarium graminearum in % (Fusarium graminearum): 55%
28 | CC(C)C(=O)N(C(=O)C(C)C)c1cc(-c2c(-c3ccccc3)nn3c2NCCC3)ccn1 [Example 92] | – | 100% | 78% | – | – | 78% | – | LogP [1, 6]: 3.08; Inhibition of DON/AcDON in % [2]: 99%
29 | CCC(=O)Nc1cc(-c2c(-c3ccsc3)nn3c2OC[Si](C)(C)C3)ccn1 [Example 100] | – | – | – | 80% | 95% | – | 70% | LogP [1, 6]: 1.88
30 | C[Si]1(C)COc2c(-c3ccnc(NC(=O)C4CC4)c3)c(-c3ccsc3)nn2C1 [Example 102] | – | – | – | 80% | 100% | – | 70% | LogP [1, 6]: 1.97
